Data: patent US11059855B2, “Antimicrobial peptides and methods of making and using same” (priority 2017, dated 2021)

How the values were obtained:
Hemolysis assay = assay type: cell-based, human; settings: human; peptide concentration lysing 50% of red blood cells, estimated using polynomial regression; read-out: Hemolysis Assay LC50
Experimental: Fresh human red blood cells were obtained from Interstate Blood Bank, Inc., and thoroughly washed in PBS until the supernatant was clear. hRBC concentration was determined using a standard hemocytometer. In hemolysis assays serial dilutions of peptide were prepared, followed by the addition of 2×10^8 hRBC/mL. After incubation for 1 hr at 37° C. the cells were centrifuged and the released hemoglobin was measured by optical absorbance of the heme group (410 nm). Negative control was buffer only (0% lysis), and the positive control was 20 μM melittin and distilled water (100% lysis). The samples were done in triplicate.

[1] = ANTS/DPX leakage assay, POPG; assay type: biochemical; settings: P:L = 1:1000, pH 7 phosphate buffer
Experimental: (§1) 5 mM ANTS and 12.5 mM DPX were entrapped in 0.1 μm diameter extruded vesicles with lipids. Gel filtration chromatography of Sephadex G-100 (GE Healthcare Life Sciences Inc.) was used to remove external free ANTS/DPX from LUVs with entrapped contents. […] Leakage was measured after 3 hr incubation. 10% Triton was used as the positive control to measure the maximum leakage of the vesicle. Fluorescence emission spectra were recorded using excitation wavelength (Ex: 350 nm) and emission wavelength (Em: 510 nm) for ANTS/DPX using Synergy H1 Hybrid Multi-Mode Reader.
(§2) This detects and quantifies the release of a small fluorescent dye (ANTS/DPX; MW=˜400 Da) encapsulated in LUVs after addition of library peptides. Neutral POPC LUVs serve as a simple model for mammalian membranes, while charged POPG LUVs mimic bacterial membranes enriched in anionic lipids.

[2] = provided by the distributor, GenScript; cited from earlier work
[3] = Circular dichroism secondary structure (Dichroweb), with POPC; assay type: physicochemical
Experimental: (§3) Dichroweb software analyzes the secondary structure of LDKA peptides from circular dichroism spectroscope. The table presents the percentage of each helix and strand structure at different temperature. The data are analyzed using CONTIN-LL method and Reference Set 4 (Optimised for 190-240 nm).
(§4) Peptide solutions (peptide concentration is 50 μM) were titrated with POPC and POPG LUVs (50, 100, 250, 500, 1000 μM) and the corresponding changes CD spectra collected. Analysis of these spectra using CD tools and Dichroweb provides an ensemble average of the changes in secondary structure in the presence of POPC and POPG LUVs (dichroweb.cryst.bbk.ac.uk), which gives a direct measure of the binding free energies for each peptide.

[4] = 3-kDa dextran macromolecule release assay, POPC; assay type: biochemical; settings: P:L = 1:1000, pH 7 phosphate buffer
Experimental: Several different size dextrans were prepared and labelled with both TAMRA and biotin. Conjugated dextran was entrapped in POPC LUVs as described above. External dextran was removed by incubation with immobilized streptavidin. Streptavidin labelled with an Alexa-488 fluorophore was added during the leakage experiment with the peptide as previous described.^5 The sample was then incubated for 3 hr before measuring Alexa-488 fluorescence. A control without added peptide served as the 0% leakage signal and addition of 0.05% vol. Triton X-100 was used to determine 100% leakage.

[5] = Pore-size characterization by 3-kDa dextran release; assay type: biochemical; settings: ‡Large pore for PG only
Source text: Eight LDKA peptides with different lipid selectivity and pore sizes were selected from the high-throughput screen and sequenced. […] The most common mutation is L to A, occurred 13 times and in 7 out of the 8 peptides, followed by A to L, which occurred 6 times in 5 peptides, L to D which occurred 3 times in 3 peptides, and L to P that occurred once. Lysine (K) is not favorable to be shown at the position 6, 8, 10, 12, and 13, which is the non-polar face of the helical structure. […] More specifically, the analogs only induce leakage from anionic POPG vesicles have 4-5 leucines, which is less than the analogs that can porate both POPC and POPG vesicles and have 6-7 leucines in their sequences.

[6] = Membrane selectivity from high-throughput dye leakage screen; assay type: biochemical; settings: PC = POPC, PG = POPG
Source text: as §2

[7] = Circular dichroism secondary structure (Dichroweb), with POPG; assay type: physicochemical
Experimental: as §3, §4

[8] = test system: ciprofloxacin-resistant E. coli
Experimental: “N.D.” means “not determined”.
Ceftazidime is active on the bacteria's cell wall and interferes with bacterial cell wall formation.^38,39 Ciprofloxacin is able to inhibit DNA gyrase, type II topoisomerase, and topoisomerase IV to separate bacterial DNA and inhibits cell division.^40 Streptomycin and gentamicin are antibiotics that can interrupt and inhibit protein synthesis.^41,42 E. coli strain ATCC 25922 cultures were grown in the presence of each of these antibiotics at elevated concentration for 10 generations.

Escherichia coli biofilm = assay: Activity against biofilm, E. coli; assay type: cell-based; settings: 67-150 μM peptide, 3 hr treatment
Experimental: Selected analogues were tested with each (13A). Escherichia coli biofilm, (13B). Staphylococcus aureus biofilm, and (13C) Pseudomonas aeruginosa biofilm.
However, most of the LDKA analogues fail to treat S. aureus and P. aeruginosa biofilms. Only K7H and 7F3 are capable to reduce S. aureus biofilms by ˜50% with 100 μM peptide concentration, and none of the analogues work against P. aeruginosa biofilms (FIGS. 13a-13c).

P. aeruginosa = assay: Bacterial minimum inhibitory concentration (MIC), P. aeruginosa; assay type: cell-based, Pseudomonas aeruginosa; settings: 75 μM maximum tested; NDA = not determinable
Experimental: (§5) Escherichia colt strain ATCC 25922, Staphylococcus aureus strain ATCC 25923, and Pseudomonas aeruginosa strain ATCC PAO1 were used in this study. Overnight cultures were subcultured to log phase (OD600=0.3-0.6) after which cell counts were determined by measuring the OD600 (OD600 1.0=1.5×10^8 CFU/mL for S. aureus, 5×10^8 CFU/mL for E. colt, and 2.04×10^8 CFU/mL for P. aeruginosa). Bacteria in minimal media mere added to serially diluted peptides and incubated for 3 hr, followed by the addition of full growth media. After overnight incubation, the optical density of the wells was recorded on a plate reader to determine whether they were sterilized (OD<0.08) or were at stationary phase growth (OD600>0.5). Intermediate values, which were rare, were considered positive for growth. Average minimum sterilizing concentrations were calculated from the lowest peptide concentration that sterilized the bacteria in each serial dilution. The samples were done in sextuplet.

[9] = ANTS/DPX leakage assay, POPC; assay type: biochemical; settings: P:L = 1:1000, pH 7 phosphate buffer
Experimental: as §1, §2

[10] = Circular dichroism secondary structure (Dichroweb), peptide only; assay type: physicochemical; settings: 20 °C
Experimental: as §3, §4

[11] = test system: methicillin-resistant Staphylococcus aureus (MRSA); assay type: cell-based; settings: 75 μM maximum tested; NDA = not determinable
[12] = 3-kDa dextran macromolecule release assay, POPG; assay type: biochemical; settings: P:L = 1:1000, pH 7 phosphate buffer
S. aureus = assay: Bacterial minimum inhibitory concentration (MIC), S. aureus; assay type: cell-based, Staphylococcus aureus; settings: 75 μM maximum tested; NDA = not determinable
Experimental: as §5

Substance	ANTS/DPX release, POPG [1] [%]	Solubility, DMSO [2] [mg/mL]	Solubility, DPBS pH 7.1 [2] [mg/mL]	Solubility, Ultrapure Water [2] [mg/mL]	Peptide-POPC, Helix ([3]; 20 °C) [%]	Peptide-POPC, Strand ([3]; 20 °C) [%]	Peptide-POPC, Helix ([3]; 45 °C) [%]	Peptide-POPC, Strand ([3]; 45 °C) [%]	Peptide-POPC, Helix ([3]; 70 °C) [%]	Peptide-POPC, Strand ([3]; 70 °C) [%]	Peptide-POPC, Helix ([3]; 95 °C) [%]	Peptide-POPC, Strand ([3]; 95 °C) [%]	Pore size [5]	Membrane selectivity (POPC vs POPG vesicles) [6]	Peptide-POPG, Helix ([7]; 20 °C) [%]	Peptide-POPG, Strand ([7]; 20 °C) [%]	Peptide-POPG, Helix ([7]; 45 °C) [%]	Peptide-POPG, Strand ([7]; 45 °C) [%]	Peptide-POPG, Helix ([7]; 70 °C) [%]	Peptide-POPG, Strand ([7]; 70 °C) [%]	also measured
H-GLDDLLKALLKAAGW-NH2 [Peptide 4H9]	43	15	10	5	82	0	77	0	66	4	47	11	Small	PC > PG	93	0	91	0	83	0	HC50 at 1 hr (Hemolysis assay): 56.6 µM; 3-kDa Dextran release, POPC [4]: -4%; Peptide-POPG, Helix ([7]; 95 °C): 73%; Peptide-POPG, Strand ([7]; 95 °C): 1%; MIC, ciprofloxacin-resistant E. coli [8]: completely fail; Elimination of E. coli biofilm (Escherichia coli biofilm): ~50%; Minimum Inhibitory Concentration, P. aeruginosa (P. aeruginosa): NDA; ANTS/DPX release, POPC [9]: 110%; Peptide-only, Helix [10]: 63%; Peptide-only, Strand [10]: 2%; Minimum Inhibitory Concentration, MRSA [11]: NDA
H-GLLDAAKLLAKAAGW-NH2 [Peptide 24F1]	100	15	5	10	32	16	32	16	27	17	24	22	Large	PG > PC	91	0	88	1	77	1	3-kDa Dextran release, POPG [12]: 69%; Peptide-POPG, Helix ([7]; 95 °C): 66%; Peptide-POPG, Strand ([7]; 95 °C): 2%; Minimum Inhibitory Concentration, S. aureus (S. aureus): NDA; Elimination of E. coli biofilm (Escherichia coli biofilm): ~50%; Minimum Inhibitory Concentration, P. aeruginosa (P. aeruginosa): 66 µM; ANTS/DPX release, POPC [9]: 15%; Peptide-only, Strand [10]: 14%; Minimum Inhibitory Concentration, MRSA [11]: NDA
H-GLLDLPKALAKALGW-NH2 [Peptide 7G6]	105	15	15	10	49	10	56	6	47	10	30	20	Small	PG > PC	86	2	87	2	82	3	3-kDa Dextran release, POPG [12]: -1%; Peptide-POPG, Helix ([7]; 95 °C): 75%; Peptide-POPG, Strand ([7]; 95 °C): 3%; Minimum Inhibitory Concentration, S. aureus (S. aureus): NDA; Elimination of E. coli biofilm (Escherichia coli biofilm): ~50%; Minimum Inhibitory Concentration, P. aeruginosa (P. aeruginosa): NDA; ANTS/DPX release, POPC [9]: 48%; Peptide-only, Strand [10]: 10%; Minimum Inhibitory Concentration, MRSA [11]: NDA
